# Values of other authors in patent US8193376B2, “Artemisinin derivatives with natural amino acids, peptides, and amino sugars for the treatment of infection and topical condition in mammals” (Bioderm Research, priority 2007, dated 2012).
# Key:
# nucleic acid synthesis = settings: relative to artemisinin
# malaria = settings: relative to artemisinin
SMILES,"ability to inhibit nucleic acid synthesis, times the activity of artemisinin (nucleic acid synthesis) [times]","antimalarial potency, times that of artemisinin (malaria) [times]",antimalarial potency higher than that of artemisinin (malaria) [%]
"CCO[C@H]1O[C@@H]2O[C@@]3(C)CC[C@H]4[C@H](C)CC[C@@H]([C@H]1C)[C@@]24OO3 [arteether, Arteether]",100,,
CO[C@H]1O[C@@H]2O[C@@]3(C)CC[C@H]4[C@H](C)CC[C@@H]([C@H]1C)[C@@]24OO3 [Artemether],100,6,
C[C@H]1[C@@H](O)O[C@@H]2O[C@@]3(C)CC[C@H]4[C@H](C)CC[C@@H]1[C@@]24OO3 [Dihydroartemisinin],100,,60
C[C@H]1[C@H](OC(=O)CCC(=O)O)O[C@@H]2O[C@@]3(C)CC[C@H]4[C@H](C)CC[C@@H]1[C@@]24OO3 [Artesunate],100,5.2,
CCCOC(=O)OC1O[C@@H]2O[C@@]3(C)CC[C@H]4[C@H](C)CC[C@@H]([C@H]1C)[C@@]24OO3 (some centres unmarked) [propylcarbonate dihydroartemisinin],100,,
